Earlier results in patent publication US20150018665A1, “MOLECULAR AND CELLULAR IMAGING USING ENGINEERED HEMODYNAMIC RESPONSES” (Massachusetts Institute of Technology, priority 2013, published 2015).

Biological target: nNOS (Homo sapiens, UniProt P29475)
Settings: blockade of nNOS

nNOS, sequence (P29475 whole entry, species assumed): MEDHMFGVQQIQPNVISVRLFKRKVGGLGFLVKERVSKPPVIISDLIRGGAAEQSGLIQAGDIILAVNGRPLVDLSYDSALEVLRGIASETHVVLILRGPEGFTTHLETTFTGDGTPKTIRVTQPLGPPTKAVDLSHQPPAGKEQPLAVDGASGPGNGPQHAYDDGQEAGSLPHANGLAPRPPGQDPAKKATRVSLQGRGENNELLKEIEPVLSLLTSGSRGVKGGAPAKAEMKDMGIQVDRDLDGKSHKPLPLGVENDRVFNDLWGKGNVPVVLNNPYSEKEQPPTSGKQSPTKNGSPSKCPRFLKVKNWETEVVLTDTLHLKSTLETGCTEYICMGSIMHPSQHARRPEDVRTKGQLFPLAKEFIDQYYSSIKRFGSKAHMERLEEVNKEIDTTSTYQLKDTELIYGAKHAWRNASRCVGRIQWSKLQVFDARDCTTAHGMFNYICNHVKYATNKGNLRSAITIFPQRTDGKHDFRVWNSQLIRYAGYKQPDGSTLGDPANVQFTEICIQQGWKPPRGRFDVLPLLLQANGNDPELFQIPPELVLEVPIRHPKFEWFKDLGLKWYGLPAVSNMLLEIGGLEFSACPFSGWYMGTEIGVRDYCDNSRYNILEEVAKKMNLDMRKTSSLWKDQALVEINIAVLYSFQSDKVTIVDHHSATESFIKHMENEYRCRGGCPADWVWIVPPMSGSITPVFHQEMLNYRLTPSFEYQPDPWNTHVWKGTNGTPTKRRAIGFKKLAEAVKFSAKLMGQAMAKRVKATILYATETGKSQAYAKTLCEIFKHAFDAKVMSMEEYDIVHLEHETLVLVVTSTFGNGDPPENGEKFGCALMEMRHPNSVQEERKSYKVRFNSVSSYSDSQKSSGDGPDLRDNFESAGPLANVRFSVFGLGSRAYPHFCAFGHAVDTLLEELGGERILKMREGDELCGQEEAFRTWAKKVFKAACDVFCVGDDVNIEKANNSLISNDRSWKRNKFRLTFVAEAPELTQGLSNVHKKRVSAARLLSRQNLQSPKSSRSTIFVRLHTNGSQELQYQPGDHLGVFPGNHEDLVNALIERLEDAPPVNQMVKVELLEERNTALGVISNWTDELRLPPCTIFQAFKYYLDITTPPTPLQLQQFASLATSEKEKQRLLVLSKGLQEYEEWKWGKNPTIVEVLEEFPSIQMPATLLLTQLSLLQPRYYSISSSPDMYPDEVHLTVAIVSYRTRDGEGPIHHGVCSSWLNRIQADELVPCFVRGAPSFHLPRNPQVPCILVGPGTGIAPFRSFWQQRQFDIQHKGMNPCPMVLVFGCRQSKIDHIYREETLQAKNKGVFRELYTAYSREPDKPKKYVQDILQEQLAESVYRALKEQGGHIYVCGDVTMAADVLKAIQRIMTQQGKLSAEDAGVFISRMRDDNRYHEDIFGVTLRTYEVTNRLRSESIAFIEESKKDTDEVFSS

NC(=NCCC[C@H](N)C(=O)O)N[N+](=O)[O-] [L-nitroarginine]
effect on fMRI-detectable responses to stimulation: abolishes or sharply reduces
